Holding throughout (assay): inhibition of tumour cell growth, NCI panel, 48 h
In assay [1] the test system is NCI-H226 lung.
For assay [2], the system named is SN12C renal.
Assay [3] relates to MDA-MB-435.
Assay [4] has as its system MOLT-4 leukemia.
Assay [5] has as its system PC-3 prostate.
Assay [6] relates to A498 renal.
Assay [7] relates to HCT-116 colon.
Assay [8] concerns COLO 205 colon.
Assay [9] relates to SF-539 CNS.
For assay [10], the system named is OVCAR-4 ovarian.

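The compound was tested at five concentrations on cells cultured in 96-well plates, with a 48-hour exposure period. GI50 = concentration required for 50% inhibition of growth. Definition used: TGI = concentration required for complete inhibition of growth.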

Take `CN(C)C(=O)N1N[C@H](c2ccccc2)[C@@H]1c1ccccc1`: the TGI in [1], in [2], in assay [3], in [4], in assay [5] and in [6] was > 100 µM in each case. Also, the TGI in assay [7], in assay [8], in assay [9] and in assay [10] was > 100 µM throughout.
Turning to `CC(C)OC1=C(CC2(C)OCCO2)C(=O)C12OCCO2`, the TGI in assay [1], in [2], in assay [3], in assay [4], in [5] and in assay [6] was > 100 µM each time. The TGI in assay [7], in assay [8], in assay [9] and in assay [10] was > 100 µM each time.
On to `CCn1c(CCCc2nc3c([nH]2)c(=O)n(C)c(=O)n3C)nc2c1c(=O)n(C)c(=O)n2C`, for which the TGI was 30.6 µM in assay [1]; > 100 µM in [2]; > 100 µM in assay [3]; > 100 µM in assay [4]; > 100 µM in assay [5]; > 100 µM in [6]. The TGI in [7] was > 100 µM; in assay [8] it was 27 µM; in [9], 30.5 µM; in assay [10] it was > 100 µM.
As for `COc1cc(C2c3cccc4cccc(c34)C3CCC(=O)N32)cc(OC)c1O` (stereo not drawn), the TGI in assay [1], in assay [2], in [3], in assay [4], in assay [5] and in [6] was > 50 µM in each case. The TGI in assay [7], in [8], in [9] and in assay [10] was > 50 µM in each case.
On to `COc1ccc(C2N(c3ccc(C)c(N=C=O)c3)C(=O)N3C(c4ccc(OC)cc4)N(c4ccc(C)c(N=C=O)c4)C(=O)N23)cc1` (stereo not drawn), for which the TGI in assay [1], in [2], in [3], in assay [4], in assay [5] and in [6] was > 100 µM throughout. The TGI in assay [7], in assay [8], in assay [9] and in assay [10] was > 100 µM each time.
`C=C(C)C1(Sc2ccc(OC)cc2)CC1`: the TGI was 54.7 µM in [1]; 35.4 µM in assay [2]; 44 µM in [3]; 40.3 µM in [4]; > 100 µM in assay [5]; > 100 µM in [6]. For the same compound, the TGI in assay [7] was > 100 µM; in assay [8] it was 60.1 µM; in assay [9], > 100 µM; in [10], > 100 µM.
With `COc1cc2nc(-c3cccs3)nc(Nc3ccccc3C(=O)NN)c2cc1OC`, the TGI in assay [1], in [2], in assay [3], in assay [4], in [5] and in assay [6] was > 100 µM throughout. The TGI in assay [7], in assay [8], in assay [9] and in [10] was > 100 µM each time.
Consider `c1ccc2c(c1)nnn2C1CCCCO1` (stereo not drawn), for which the TGI in assay [1], in assay [2], in assay [3], in assay [4], in assay [5] and in assay [6] was > 100 µM in each case. The TGI in [7], in assay [8], in [9] and in [10] was > 100 µM each time.
As to `COc1cc(C(c2ccccc2)N2C(=O)CC[C@H]2C(=O)O)cc(OC)c1OC` (stereo partly drawn), the TGI in [1], in assay [2], in assay [3], in assay [4], in assay [5] and in assay [6] was > 100 µM in each case. Besides, the TGI in assay [7], in [8], in assay [9] and in assay [10] was > 100 µM each time.
As for `CCOC(=O)Cc1[nH]c(C(=O)c2ccccc2)cc1C(=O)c1ccccc1`, the TGI in [1] was 65.8 µM; in assay [2], > 100 µM; in [3], 66 µM; in assay [4], 85.7 µM; in assay [5], > 10 µM; in [6] it was > 100 µM. Also, the TGI was found to be 33.4 µM in assay [7], 48.7 µM in assay [8] and 59.8 µM in assay [10].
As for `COCC(C#N)NC1CC(OC2CC(O)(C(=O)CO)Cc3c(O)c4c(c(O)c32)C(=O)c2c(OC)cccc2C4=O)OC(C)C1O` (stereo not drawn), the TGI amounted to 0.117 µM in assay [1]; 2.02 µM in [2]; 0.346 µM in assay [3]; 0.0471 µM in assay [4]; 1.2 µM in [5]; 0.448 µM in [6]. Moreover, the TGI in assay [8] was found to be 0.471 µM; in [9] it was 0.365 µM; in [10], 2.08 µM.
Regarding `N#Cc1c(/C=C/c2ccccc2)c2c([nH]c1=S)CCCCC2`, the TGI in assay [1], in [2], in [3], in assay [4], in [5] and in assay [6] was > 100 µM each time. In addition, the TGI in [7], in assay [8], in assay [9] and in assay [10] was > 100 µM throughout.
With `CCC[N+](C)(C)CCCNC(=O)c1c(O)c2ccccc2[nH]c1=O`, the TGI in assay [1], in [2], in [3], in assay [4], in assay [5] and in assay [6] was > 100 µM in each case. Moreover, the TGI in [7], in [8], in assay [9] and in assay [10] was > 100 µM in each case.
For the compound `O=C(O)C(Cc1ccccc1)Cc1ccccc1`, the TGI in assay [1], in assay [2], in assay [3], in assay [4], in assay [5] and in assay [6] was > 100 µM in each case. Moreover, the TGI in assay [7], in assay [8], in [9] and in [10] was > 100 µM in each case.
On to `COC(=O)N[C@@H]1C[C@H]2CC[C@]1(O[Si](C(C)C)(C(C)C)C(C)C)C(=O)C2`, for which the TGI in [1] was 33 µM; in assay [2] it was > 100 µM; in assay [3] it was 41.6 µM; in [4], > 100 µM; in [5] it was 33.9 µM; in [6] it was 44.3 µM. Moreover, the TGI in [7] is > 100 µM; in assay [8], > 100 µM; in assay [10], 33.8 µM.
Regarding `Cc1ccc2sc3c(NCCCN)nc4ccccc4c3c(=O)c2c1`, the GI50 was 1.84 µM in assay [1]; 1.68 µM in [2]; 1.82 µM in assay [3]; 1.71 µM in assay [5]; 1.87 µM in assay [6]; 1.8 µM in assay [7]. The figures for the GI50 in assay [8], in assay [9] and in [10] were 2.19 µM, 1.76 µM and 2.16 µM, respectively. Further, the TGI in [1] amounted to 3.66 µM; in [2], 3.13 µM; in assay [3], 3.46 µM; in assay [5], 3.4 µM; in assay [6] it was 4.64 µM; in [7], 3.42 µM. In addition, the TGI was determined as 5.13 µM in assay [8], 3.21 µM in [9] and 4.69 µM in assay [10].
For the compound `CC1(C)CCCCCC(O)C(O)CCC(C)(C)C1=O` (stereo not drawn), the TGI in assay [1], in assay [2], in assay [3], in [4], in assay [5] and in assay [6] was > 100 µM each time. Besides, the TGI in assay [7], in assay [8], in assay [9] and in [10] was > 100 µM each time.
As for `OC(CCN1CCN(CCOC(c2ccccc2)c2ccccc2)CC1)c1ccccc1` (stereo not drawn), the TGI came to 88.2 µM in assay [1]; 82.3 µM in assay [2]; 38.3 µM in assay [3]; 65.5 µM in assay [5]; 21.6 µM in assay [6]; 34.3 µM in [7]. Also, the TGI in assay [8] was 29.1 µM; in assay [9], 36.8 µM; in [10], > 100 µM.
In the case of `NC1(c2cc3ccccc3s2)CCCCCC1`, the TGI in assay [1] is 38.4 µM; in [2], 31 µM; in [3] it was 29.7 µM; in assay [4], 32.6 µM; in assay [5], 24 µM; in [6], 35.2 µM. The TGI in [7] came to 29.5 µM; in [8] it was 26.5 µM; in [9], 32.8 µM; in assay [10] it was 27.7 µM.
`N#CCCN(CCCCN(CCC#N)C(=O)Nc1ccccc1)C(=O)Nc1ccccc1`: the TGI in assay [1], in [2], in assay [3], in [4], in [5] and in assay [6] was > 100 µM throughout. Also, the TGI in [7], in assay [8] and in assay [10] was > 100 µM in each case.
For `O=S(=O)(O)c1ccc(O)c(N=Nc2c(O)ccc3ccccc23)c1`, the TGI in assay [1], in assay [2], in assay [3], in [4], in [5] and in assay [6] was > 100 µM in each case. Moreover, the TGI in [7], in assay [8] and in assay [10] was > 100 µM each time.
Take `Oc1ccc(-c2nc3cc(C(F)(F)F)ccc3s2)cc1`: the TGI in assay [1] was 32.6 µM; in assay [2], 32.6 µM; in assay [3], 29.5 µM; in assay [4], 87.5 µM; in [5], 27.9 µM; in assay [6], 32.6 µM. The values for the TGI in assay [7], in [8] and in [9] were 27.6 µM, 33.1 µM and 34.2 µM, respectively.
With `O=C(CC(=O)N1N=C(c2ccccc2)C(N=Nc2ccc(S(=O)(=O)CCOS(=O)(=O)O)cc2)C1=O)Nc1ccc(Cl)cc1` (stereo not drawn), the TGI in [1], in [2], in assay [3], in assay [4], in assay [5] and in [6] was > 100 µM throughout. The TGI in [7], in [8] and in [9] was > 100 µM in each case.
In the case of `COC1C(O)C(C)OC(O[C@H]2CC[C@@]3(C)C(CC[C@@H]4[C@@H]3CC[C@]3(C)[C@@H](C(C)OC5OC(CO)C(O)C(O)C5O)CC[C@]43O)C2)C1O` (stereo partly drawn), the TGI in assay [1], in assay [2], in [3], in assay [4], in [5] and in [6] was > 25 µM throughout. In addition, the TGI in [7], in assay [9] and in assay [10] was > 25 µM throughout.
As for `CC1(C)CCC2=C(O1)c1ccccc1C(=Nc1ccc([N+](=O)[O-])cc1)C2=O`, the TGI was 25.3 µM in [1]; 29.3 µM in assay [2]; 29.2 µM in assay [3]; > 100 µM in assay [4]; 31.5 µM in [5]; 33.6 µM in assay [6]. Further, the TGI was determined as 19.9 µM in [7], 30.4 µM in assay [8] and 38.7 µM in [10]. The GI50 is 15.9 µM in assay [2], 15.8 µM in assay [3] and 16.8 µM in assay [8].
In the case of `CC(C)(C)OC(=O)N1C(=O)C2CCCC21` (stereo not drawn), the TGI in assay [1], in assay [2], in assay [3], in assay [4], in [5] and in [6] was > 100 µM in each case. Also, the TGI in assay [7], in [8] and in assay [10] was > 100 µM throughout.
Consider `COC(=O)/C=C1\C(CO[Si](C)(C)C(C)(C)C)OC(n2cc(C)c(=O)n(C)c2=O)C1O[Si](C)(C)C(C)(C)C` (stereo not drawn), for which the TGI in assay [1], in assay [2], in assay [3], in assay [4], in [5] and in [6] was > 100 µM each time. The TGI in assay [7] and in assay [8] was > 100 µM throughout.
